{
  "source": "paper PMC9953095",
  "about": "“Design, Synthesis and Biological Evaluation of Quinazolinamine Derivatives as Breast Cancer Resistance Protein and P-Glycoprotein Inhibitors with Improved Metabolic Stability” (Biomolecules, 2023)",
  "key": {"KB-C2 cells": {"system": "KB-C2 cells", "assay": "[3H]-paclitaxel accumulation assay, KB-C2", "type": "cell-based, human", "conditions": "resistant cell line KB-C2; compound 5 μM; Figure 6B", "procedure": "(§1) To determine the accumulation of drugs on H460, H460/MX20, KB-3-1, and KB-C2 cells, the cells ([…] cells/well) were seeded in the 24-well plates and incubated at 37 °C with 5% CO2 [17]. After 12 h of incubation, a test compound (5 µM) was added and the plates were incubated at 37 °C for 2 h. Cells were then incubated with 0.01 µM [^3H]-MX or [^3H]-paclitaxel-containing medium for an additional 2 h at 37 °C, with or without a test compound. The cells were washed twice with ice-cold phosphate-buffered saline (PBS), trypsinized and lysed at the end of incubation. The radioactivity was measured using the Packard TRICARB1 1900A liquid scintillation analyzer."}, "[1]": {"assay": "Metabolic stability with human liver microsomes", "type": "in vitro ADME", "conditions": "after 1 h of incubation with human liver microsomes, 37 °C, NADPH", "procedure": "Human liver microsome (20 mg/mL) 6.25 µL, nicotinamide adenine dinucleotide phosphate (NADPH) (0.75 µmol), MgCl2 (0.75 µmol), and the test compound (0.05 µmol) were added into a potassium phosphate buffer (pH 7.4) with 250 µL of final volume. The incubation was carried out aerobically at 37 °C. The mixture was pre-incubated without NADPH for 10 min at 37 °C and NADPH was added to start the reaction. At 1 h after the start of the reaction, an aliquot (50 µL) of the incubation mixture was taken from each incubation and mixed with 150 µL of ice-cold acetonitrile to terminate the reaction. Subsequently, the sample was centrifuged (12,000 rpm) at room temperature. The resulting supernatant was filtered and analyzed using HPLC (LC, Agilent 1200; column, HC-C18(2); column temperature, 25 °C; mobile phase, solvent A, methanol, solvent B, water; gradient elution, 30–99% solvent A; flow rate, 1 mL/min; UV signals were recorded at 254 nm)."}, "[2]": {"system": "BCRP localization in H460/MX20 cells", "assay": "Immunofluorescence assay of BCRP localization in H460/MX20 cells", "type": "cell-based, human", "conditions": "5 μM for 24, 48, and 72 h, Figure 8A,C", "procedure": "(§2) For immunofluorescence analysis, parental and drug-resistant cells were seeded in 24-well plates at 10,000–20,000 cells/well and incubated for 24 h. The cells were incubated with or without cyclopropyl quinazolinamine 22 or azide quinazolinamine 33 for 24 h, 48 h, and 72 h. Thereafter, cells were washed with PBS and fixed with 4% paraformaldehyde for 10 min at room temperature and then rinsed with PBS twice, followed by permeabilization with 1% Triton X-100 for 10 min at 4 °C. The cells were again washed twice with PBS, and then blocked with 6% BSA for 1 h at 37 °C. Fixed cells were incubated with monoclonal antibody against the BCRP protein (BXP 21) (Sigma-Aldrich, Inc., St. Louis, MO) (1:1000) or P-gp (F4) (Sigma-Aldrich, Inc., St. Louis, MO, USA) overnight at 4 °C, followed by two washes with PBS. The cells were then further incubated with Alexa flour 488 goat anti-mouse IgG (1:1000) (Abcam plc.) for 2 h at 37 °C. After the cells were washed twice with PBS, 4′,6-diamidino-2-phenylindole (DAPI) (2 µg/mL) was used for nuclear counterstaining. The immunofluorescence images were generated using a Nikon TE-2000S fluorescence microscope (Nikon Instruments Inc, Melville, NY, USA)."}, "P-gp ATPase": {"target": "T1, P-gp ATPase (Homo sapiens, UniProt P08183)", "T1 construct": "host or cells: High Five insect cells (membrane vesicles)", "T1 sequence (P08183 whole entry)": "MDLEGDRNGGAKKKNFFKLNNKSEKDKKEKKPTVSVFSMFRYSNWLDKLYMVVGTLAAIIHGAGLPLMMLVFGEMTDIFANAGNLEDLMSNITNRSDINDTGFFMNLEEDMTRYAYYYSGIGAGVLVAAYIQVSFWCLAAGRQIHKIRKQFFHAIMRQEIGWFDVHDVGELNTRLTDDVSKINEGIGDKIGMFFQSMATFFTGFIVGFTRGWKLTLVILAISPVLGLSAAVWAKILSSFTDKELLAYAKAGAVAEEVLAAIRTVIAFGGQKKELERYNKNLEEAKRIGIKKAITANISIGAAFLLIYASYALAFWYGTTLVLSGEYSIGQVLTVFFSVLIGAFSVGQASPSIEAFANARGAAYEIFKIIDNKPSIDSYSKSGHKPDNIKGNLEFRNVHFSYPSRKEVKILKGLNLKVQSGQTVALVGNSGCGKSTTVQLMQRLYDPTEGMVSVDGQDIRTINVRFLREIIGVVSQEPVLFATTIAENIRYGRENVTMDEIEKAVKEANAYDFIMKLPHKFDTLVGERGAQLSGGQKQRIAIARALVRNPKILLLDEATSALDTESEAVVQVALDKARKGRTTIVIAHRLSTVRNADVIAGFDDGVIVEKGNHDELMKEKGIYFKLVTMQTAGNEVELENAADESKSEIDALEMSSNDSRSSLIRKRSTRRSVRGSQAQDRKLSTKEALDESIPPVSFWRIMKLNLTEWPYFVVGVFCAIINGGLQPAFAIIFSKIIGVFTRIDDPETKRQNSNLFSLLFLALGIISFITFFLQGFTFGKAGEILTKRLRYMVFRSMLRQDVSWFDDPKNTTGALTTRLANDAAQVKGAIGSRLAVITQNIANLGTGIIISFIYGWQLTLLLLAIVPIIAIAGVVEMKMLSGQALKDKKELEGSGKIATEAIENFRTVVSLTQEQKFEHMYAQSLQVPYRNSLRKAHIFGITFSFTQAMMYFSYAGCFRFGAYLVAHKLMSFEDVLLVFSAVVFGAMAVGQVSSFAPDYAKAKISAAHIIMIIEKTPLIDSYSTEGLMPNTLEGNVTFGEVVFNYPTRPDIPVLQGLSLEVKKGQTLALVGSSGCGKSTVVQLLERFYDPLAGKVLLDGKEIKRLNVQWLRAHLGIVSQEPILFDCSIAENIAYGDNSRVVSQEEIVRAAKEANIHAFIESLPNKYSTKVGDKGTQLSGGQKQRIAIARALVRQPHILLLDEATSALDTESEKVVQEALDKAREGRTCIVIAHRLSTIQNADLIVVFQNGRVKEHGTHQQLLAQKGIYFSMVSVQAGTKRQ", "assay": "Vanadate-sensitive P-gp ATPase assay", "type": "biochemical", "conditions": "membrane vesicles of High Five insect cells; Figure 10C", "procedure": "The vanadate (Vi)-sensitive ATPase activity of BCRP and P-gp in the membrane vesicles of High Five insect cells was measured as described previously. The results were presented as vanadate-sensitive ATPase activities by determining the difference in inorganic phosphate liberation measured in the presence and absence of sodium orthovanadate."}, "[3]": {"system": "P-gp localization in KB-C2 cells", "assay": "Immunofluorescence assay of P-gp localization in KB-C2 cells", "type": "cell-based, human", "conditions": "Figure 8B", "procedure": "as §2"}, "H460 cells": {"system": "H460 cells", "assay": "[3H]-mitoxantrone accumulation assay, H460", "type": "cell-based, human", "conditions": "parental H460 cells; compound 5 μM; Figure 6A", "procedure": "as §1"}, "[4]": {"system": "BCRP protein in H460/MX20 cells", "assay": "Western blot of BCRP expression in H460/MX20 cells", "type": "cell-based, human", "procedure": "(§3) Cells in T25 flask were washed with ice-cold PBS. Lysis buffer (100 µL) was added into T25 flask. Using a cell scraper, scrape adherent cells were scraped off the flask and the cell suspension was transferred into a microcentrifuge tube (1.5 mL). Cells were agitated for 20 min at 4 °C and cell lysate was centrifuged mixture at 4 °C for 20 min at 12,000 rpm. The supernatant (lysate) was used for the gel electrophoresis. Equal amounts of total cell lysates (20 µg protein) were resolved by sodium dodecyl sulfate polyacrylamide gel electrophoresis (SDS-PAGE) and electrophoretically transferred onto polyvinylidene fluoride (PVDF) membranes. After incubation in a blocking solution (5% milk) for 2 h at room temperature, the membranes were incubated overnight with primary monoclonal antibodies against GAPDH (GA1R) (Invitrogen, Carlsbad, CA, USA) at 1:1000 dilution of BCRP protein (BXP 21) (Sigma-Aldrich, Inc., St. Louis, MO, USA) (1:1000) or P-gp (F4) (Sigma-Aldrich, Inc., St. Louis, MO, USA) at 4 °C, and were further incubated with horseradish […] (HRP)-conjugated secondary antibody (Thermo Fisher Scientific Inc., Waltham, MA, USA) at 1:1000 dilution for 2 h at room temperature. The protein antibody complex was detected using an enhanced chemiluminescence detection system. The grayscale ratio was analyzed by ImageJ and normalized by the grayscale of the ABC protein divided by that of GAPDH."}, "[5]": {"system": "P-gp protein in KB-C2 cells", "assay": "Western blot of P-gp expression in KB-C2 cells", "type": "cell-based, human", "procedure": "as §3"}},
  "note": "“And” between values parts separate entries of the source, which are not always exact repeats. Equal entries are not always repeated. Wherever Metabolic Stability, % compound remaining is given: tested at 200 µM.",
  "data": [
    {"smiles": "c1ccc2c(Nc3ccc(C4CC4)cc3)nc(-c3ccncc3)nc2c1", "note": "[Compound 22, N-(4-Cyclopropylphenyl)-2-(pyridin-4-yl)quinazolin-4-amine]", "values": [
      {"measurement": "accumulation of paclitaxel", "setting": "KB-C2 cells", "result": "significantly increased"},
      {"measurement": "Metabolic Stability, % compound remaining", "setting": "[1]", "result": "92% and 92 ± 8%"},
      {"measurement": "BCRP fluorescence on the membranes / intracellular localization of BCRP", "setting": "[2]", "result": "decreased gradually"},
      {"measurement": "effect on Vi-sensitive P-gp ATPase activity", "setting": "P-gp ATPase", "result": "neither stimulate or inhibit"},
      {"measurement": "P-gp fluorescence on the membranes", "setting": "[3]; 5 μM at 72 h", "result": "decreased slightly"},
      {"measurement": "P-gp fluorescence on the membranes", "setting": "[3]; 5 μM for 24 and 48 h", "result": "did not decrease significantly"},
      {"measurement": "accumulation of mitoxantrone", "setting": "H460 cells", "result": "slightly increase"},
      {"measurement": "BCRP protein expression level in the cytoplasm", "setting": "[4]; H460/MX20 cytoplasm fraction, Figure 9B", "result": "increased"},
      {"measurement": "expression level of BCRP protein on the membrane", "setting": "[4]; H460/MX20 membrane fraction, Figure 9A", "result": "decreased"},
      {"measurement": "expression level of BCRP protein", "setting": "[4]; H460/MX20 total cell lysate, Figure 7", "result": "did not change the expression level"},
      {"measurement": "cytoplasmic P-gp expression level", "setting": "[5]; KB-C2 cytoplasm fraction, Figure 9D", "result": "slightly increased"},
      {"measurement": "expression level of the P-gp protein on the membrane", "setting": "[5]; KB-C2 membrane fraction, Figure 9C", "result": "slightly decreased"},
      {"measurement": "P-gp protein expression", "setting": "[5]; KB-C2 total cell lysate, Figure 7B", "result": "nor did it change the P-gp protein expression"}
    ]}
  ]
}
